Entries after “also recorded” stand apart in the source; their conditions may differ. Read-outs that look alike come from different tables or passages of the source.
Key:
[1] = Chamelogk, chromatographic chameleonicity descriptor (PLRP-S RP-HPLC); format: physicochemical; settings: Exp. minus Ext. log k' PLRP-S at 100% MeCN; linear fit at 50, 60, 70% MeCN; 20 mM ammonium acetate pH 7.0; 30 °C
physchem = format: physicochemical
Experimental: (§1) The mobile phases for every descriptor consisted of isocratic solutions of 20 mM ammonium acetate at pH 7.0 and acetonitrile at various percentages (see the specific descriptor). Small amounts of the 55 compounds were dissolved in buffer/acetonitrile mixtures (v/v) at concentrations ranging from 50 to 100 μg/mL. Subsequently, 10 μL of each solution (injection volume) was injected at an isocratic flow rate of 1 mL/min and analyzed at 30 °C (oven temperature). Chromatographic measurements were then analyzed in duplicate based on the specific chromatographic conditions of each descriptor.
BRlogD[39] required the injection of 55 samples into the X-Bridge column at 60% MeCN (predominant mobile phase constituent). The retention times and dead time (t0, baseline interference) were recorded, and the capacity factor log k’60 was calculated adapting eq 2. Lastly, BRlogD value was calculated from eq 3 [drawing 3] 3

[2] = log kW^IAM and Δ log kW^IAM (IAM chromatography); format: physicochemical; settings: for log kW^IAM: IAM column, extrapolated to 100% buffer from 10 to 50% MeCN, pH 7.0; for Δ log kW^IAM: polarity, from log kW^IAM and BRlogD (eq 4, 5)
Experimental: as §1, with “descriptor. […] The retention times of the samples were recorded, and the capacity factor was calculated for each mobile phase condition adapting eq 2, where t0 is the retention time of citric acid.” for “descriptor.”

[3] = solubility range class; cited from earlier work
[4] = oral activity; cited from earlier work
[5] = difference between maximum and minimum 3D-PSA among crystallized conformers; cited from earlier work
[6] = cited from earlier work
[7] = XBridge column, 60% MeCN, pH 7.0, read-out: BRlogD

| Structure (SMILES) | Chamelogk [1] | chromatographic logD (physchem; pH 7) | log kW^IAM [2] | Δ log kW^IAM [2] | chromatographic logD (physchem; XBridge Shield RP18 HPLC column, XBridge column, 60% MeCN, pH 7.0, read-out: BRlogD) | BRlogD (physchem; pH 7) | LogS [3] | Abs. Route [4] | chromatographic logD (physchem; [7]) | X-Ray Δ 3D-PSA [5] | ChameLogD [6] |
| --- | --- | --- | --- | --- | --- | --- | --- | --- | --- | --- | --- |
| Cc1ncsc1-c1ccc(CNC(=O)[C@@H]2C[C@H](O)CN2C(=O)[C@@H](NC(=O)COCCOCCOCCNC(=O)C[C@@H]2N=C(c3ccc(Cl)cc3)c3c(sc(C)c3C)-n3c(C)nnc32)C(C)(C)C)cc1 [cisMZ1] | 1.27 | 1.87 | 2.90 | 2.20 |  |  | Int. range | Non-oral |  |  |  |
| Cc1ncsc1-c1ccc(CNC(=O)[C@@H]2C[C@@H](O)CN2C(=O)[C@@H](NC(=O)COCCOCCOCCNC(=O)C[C@@H]2N=C(c3ccc(Cl)cc3)c3c(sc(C)c3C)-n3c(C)nnc32)C(C)(C)C)cc1 [MZ1] | 1.15 | 1.77 | 2.83 | 2.24 |  |  | Int. range | not orally bioavailable; also recorded: Non-oral |  |  |  |
| Cc1sc2c(c1C)C(c1ccc(Cl)cc1)=N[C@@H](CC(=O)Nc1ccc(OCCOCCOCCOCCNc3cccc4c3C(=O)N(C3CCC(=O)NC3=O)C4=O)cc1)c1nnc(C)n1-2 (some centres unmarked) [ARV-825] | 0.72 |  | 3.49 | 1.31 |  |  | Low range | orally active | 3.49 |  |  |
| CCC[C@H](NC(=O)[C@@H]1[C@H]2CCC[C@H]2CN1C(=O)[C@@H](NC(=O)[C@@H](NC(=O)c1cnccn1)C1CCCCC1)C(C)(C)C)C(=O)C(=O)NC1CC1 [telaprevir] | 0.31 |  | 3.02 | 0.75 |  |  |  |  | 3.6 | 32 |  |

More lines, main results first:

| Chamelogk [1] | chromatographic logD (physchem; pH 7) | log kW^IAM [2] | Δ log kW^IAM [2] | chromatographic logD (physchem; XBridge Shield RP18 HPLC column, XBridge column, 60% MeCN, pH 7.0, read-out: BRlogD) | BRlogD (physchem; pH 7) | Structure (SMILES) | LogS [3] | Abs. Route [4] | chromatographic logD (physchem; [7]) | X-Ray Δ 3D-PSA [5] | ChameLogD [6] |
| --- | --- | --- | --- | --- | --- | --- | --- | --- | --- | --- | --- |
| 0.33 |  | 2.74 | 0.87 | 3.15 |  | COC(=O)N[C@H](C(=O)N[C@@H](Cc1ccccc1)[C@@H](O)CN(Cc1ccc(-c2ccccn2)cc1)NC(=O)[C@@H](NC(=O)OC)C(C)(C)C)C(C)(C)C [atazanavir] |  |  |  | 34 | 1.6 |
| 0.45 | 4.86 | 4.15 | 0.71 |  |  | CO[C@H]1C[C@@H]2CC[C@@H](C)[C@@](O)(O2)C(=O)C(=O)N2CCCC[C@H]2C(=O)O[C@H]([C@H](C)C[C@@H]2CC[C@@H](OCCO)[C@H](OC)C2)CC(=O)[C@H](C)/C=C(\C)[C@@H](O)[C@@H](OC)C(=O)[C@H](C)C[C@H](C)/C=C/C=C/C=C/1C [everolimus] |  |  |  |  | 1.7 |
| 0.67 | 3.29 | 3.02 | 1.02 |  |  | CC(C)c1nc(CN(C)C(=O)N[C@H](C(=O)N[C@@H](Cc2ccccc2)C[C@H](O)[C@H](Cc2ccccc2)NC(=O)OCc2cncs2)C(C)C)cs1 [ritonavir] |  |  |  | 53 | 1.6 |
| 0.25 | 4.97 | 3.96 | 0.42 |  |  | CO[C@H]1C[C@@H]2CC[C@@H](C)[C@@](O)(O2)C(=O)C(=O)N2CCCC[C@H]2C(=O)O[C@H]([C@H](C)C[C@@H]2CC[C@@H](O)[C@H](OC)C2)CC(=O)[C@H](C)/C=C(\C)[C@@H](O)[C@@H](OC)C(=O)[C@H](C)C[C@H](C)/C=C/C=C/C=C/1C [sirolimus] |  |  |  |  | 1.4 |
| 1.23 |  | 3.44 | 1.85 |  | 2.85 | CC(C)(C)NC(=O)[C@@H]1C[C@@H]2CCCC[C@@H]2CN1C[C@@H](O)[C@H](Cc1ccccc1)NC(=O)[C@H](CC(N)=O)NC(=O)c1ccc2ccccc2n1 [saquinavir] |  |  |  | 21 |  |

From paper PMC10424176, “Chamelogk: A Chromatographic Chameleonicity Quantifier to Design Orally Bioavailable Beyond-Rule-of-5 Drugs” (Journal of Medicinal Chemistry, 2023)
